Measurements taken from patent publication US10774098B2, “Nahlsgen optical resolution method” (KYOTO UNIVERSITY, priority 2016, dated 2020).

System: normal human epidermal cells
Assay: glutathione production promotion activity (glutathione reductase recycling assay)
Assay type: cell-based
Conditions: for GSH (pmol/μg protein) Mean: cultivation for 24 hours
From the text: The equal amount mixture obtained in Example 1 was used as a sample and evaluated for glutathione production promotion activity by the following procedure.
Specifically, normal human epidermal cells were inoculated to a 96-well microplate housing a normal human epidermic keratinocyte growth medium (trade name HuMedia KG2, supplied by Kurabo Industries Ltd.) in a cell density of 2.0×10^4 cells per 96 wells.
Twenty-four (24) hours after the inoculation, the medium was exchanged with a normal human epidermic keratinocyte growth medium (trade name HuMedia KB2, supplied by Kurabo Industries Ltd.) containing the sample in a predetermined concentration, and the cultivation was continued.
As a positive control, a cultivation was performed by a procedure similar to above, except for using, instead of the sample, Nahlsgen (DL-2-amino-4-[(RSp)-(3-carboxymethylphenoxy)(methoxy)phosphoryl]butanoic acid, trade name GGsTop, supplied by Wako Pure Chemical Industries, Ltd.).
As a blank, a cultivation was performed a procedure similar to above, except for not using the sample.
After cultivation for 24 hours, the cells were disrupted by ultrasonication using a phosphoric acid buffer containing 100-μM phenylmethylsulfonyl fluoride, and the total amount of glutathione was quantitatively measured by the after-mentioned glutathione reductase recycling assay.
Specifically, the disrupted cell suspension was combined with reduced nicotinamide adenine dinucleotide phosphate and glutathione reductase, followed by reaction at 37° C. for 10 minutes.
Next, 0.1 M phosphate buffer solution (containing 0.5 M EDTA, pH 7.5) containing 10 mM 5,5′-dithiobis(2-nitrobenzoic acid) was added, the absorbance (at 450 nm) was measured immediately after addition, and after 30 minute-incubation, and the difference between two measurements ((absorbance after 30 minute-incubation)−(absorbance immediately after addition)) was defined as an index for glutathione synthesis quantity.
The total amount of glutathione in the disrupted cell suspension was calculated on the basis of a calibration curve plotted using oxidized glutathione. The protein content in the disrupted cell suspension was quantitatively determined using the Pierce Microplate BCA Protein Assay Kit (Thermo SCIENTIFIC). The glutathione synthesis quantity was evaluated for differences from the untreated specimen (blank) and from the positive control by a significant difference test using Student's t-test.

Compound	GSH (pmol/μg protein) Mean (Conc. 10.00 μmol/L) [pmol/μg protein]	GSH (pmol/μg protein) Mean (Conc. 2.00 μmol/L) [pmol/μg protein]	GSH (pmol/μg protein) Mean (Conc. 50.00 μmol/L) [pmol/μg protein]	GSH (pmol/μg protein) Mean (Conc. 250.00 μmol/L) [pmol/μg protein]	glutathione (GSH) amount compared with the blank (untreated cells) (result in words, summary of Table 1)
COP(=O)(CC[C@H](N)C(=O)O)Oc1cccc(CC(=O)O)c1 (mixture of isomers) [Nahlsgen, DL-2-amino-4-[(RSp)-(3-carboxymethylphenoxy)(methoxy)phosphoryl]butanoic acid]	44.7	–	–	–	–
equal-amount mixture of D-2-amino-4-[(Rp)-(3-carboxymethylphenoxy)(methoxy)phosphoryl]butanoic acid monohydrate and L-2-amino-4-[(Sp)-(3-carboxymethylphenoxy)(methoxy)phosphoryl]butanoic acid monohydrate [Example 1]	48.1	44.2	38.0	41.5	significantly increased glutathione (GSH) amount as well as or better than the cells treated with Nahlsgen
